Assay results from patent publication US20240426807A1, “SCREENING SYSTEM” (Givaudan SA, priority 2021, published 2024).
Entries after “also recorded” stand apart in the source; their conditions may differ.

Tests used:
Type in all cases: cell-based
OR5AN1 = molecular target: T1, OR5AN1 (Homo sapiens, UniProt Q8NGI8); assay: Ligand-induced OR-dependent puromycin resistance, OR5AN1 cells; conditions: HEK293T, pGL4.29-CRE-Puro-Hygro-OR with OR5AN1; musk ketone 10 μM, eugenol or isoeugenol 1 μM, ultravanil 100 μM; puromycin 0.015-16 μg/ml; PrestoBlue viability day 4
T1 construct: expressed in transfected cells
T1 sequence (Q8NGI8 1-311): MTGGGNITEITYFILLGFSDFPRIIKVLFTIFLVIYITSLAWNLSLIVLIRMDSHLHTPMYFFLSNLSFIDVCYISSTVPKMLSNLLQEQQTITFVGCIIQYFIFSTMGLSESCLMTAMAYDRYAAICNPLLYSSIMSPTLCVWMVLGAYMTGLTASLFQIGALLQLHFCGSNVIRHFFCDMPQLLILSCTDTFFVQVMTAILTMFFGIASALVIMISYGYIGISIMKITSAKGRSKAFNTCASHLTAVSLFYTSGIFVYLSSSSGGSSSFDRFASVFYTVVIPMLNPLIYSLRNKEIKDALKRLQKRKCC
Experimental: (§1) Stable clones selected with hygromycin containing a stable insertion of the pGL4.29-CRE-Puro-Hygro-OR construct described in Example 1 with either one of the receptors OR10G7, OR10G9 or OR5AN1 (NCBI Genbank Gene ID 390265, 219870 and 390195) were plated at a density of 3000 cells/per well in 200 μl Dubelcco's Modified Eagle medium (DMEM) in polyethyleneimide-coated, white 96 well microtiter plates with a transparent bottom. After cells were allowed to adhere for 24 h, they were exposed to different odorants (musk ketone at 10 μM, eugenol or isoeugenol at 1 μM, ultravanil or vanitrope at 100 μM). 7 h after odorant addition, 100 μl of the medium was removed and replaced with fresh medium with the same odorant concentrations and, in addition, puromycin to reach a final concentration of 0.015-16 μg/ml in 11 twofold dilution steps (day 1 of selection). On day 2 and 3, 100 μl of the medium was again removed and replaced with fresh medium with the same concentration of odorant and puromycin. On day 4 of the selection, medium from each well was removed completely, 100 ul PrestoBlue® cell viability reagent (ThermoFisher Scientific, Catalog No: 14200-083) diluted in phosphate buffered saline was added to each well and cells were incubated at 37° C. until a color change was visible in the wells containing no puromycin. The fluorescence was determined at 560 excitation and 590 nm emission to assess relative cell metabolic activity, which is the net result of cell growth and cell killing in presence of the different puromycin concentrations. The result was expressed as % viability relative to controls with no cells (0%) and cells treated with olfactory ligand only (100%).

OR10G9 = molecular target: T2, OR10G9 (Homo sapiens, UniProt Q8NGN4); assay: Ligand-induced OR-dependent puromycin resistance, OR10G9 cells; conditions: HEK293T, pGL4.29-CRE-Puro-Hygro-OR with OR10G9; musk ketone 10 μM, eugenol or isoeugenol 1 μM, ultravanil or vanitrope 100 μM; puromycin 0.015-16 μg/ml; PrestoBlue viability day 4
T2 construct: expressed in transfected cells
T2 sequence (Q8NGN4 1-311): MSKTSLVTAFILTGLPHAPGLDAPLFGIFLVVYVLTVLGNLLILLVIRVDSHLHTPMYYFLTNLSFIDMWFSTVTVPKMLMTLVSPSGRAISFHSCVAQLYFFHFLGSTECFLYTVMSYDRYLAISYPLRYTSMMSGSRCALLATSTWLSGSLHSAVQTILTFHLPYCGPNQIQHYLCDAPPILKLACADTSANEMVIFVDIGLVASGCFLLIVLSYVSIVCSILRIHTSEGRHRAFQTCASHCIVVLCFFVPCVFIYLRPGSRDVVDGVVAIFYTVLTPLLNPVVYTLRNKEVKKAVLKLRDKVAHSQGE
Experimental: as §1

OR10G7 = molecular target: T3, OR10G7 (Homo sapiens, UniProt Q8NGN6, T5S); assay: Ligand-induced OR-dependent puromycin resistance, OR10G7 cells; conditions: HEK293T, pGL4.29-CRE-Puro-Hygro-OR with OR10G7; musk ketone 10 μM, eugenol or isoeugenol 1 μM, ultravanil or vanitrope 100 μM; puromycin 0.015-16 μg/ml; PrestoBlue viability day 4
T3 construct: expressed in transfected cells
T3 sequence (Q8NGN6 1-311 T5S): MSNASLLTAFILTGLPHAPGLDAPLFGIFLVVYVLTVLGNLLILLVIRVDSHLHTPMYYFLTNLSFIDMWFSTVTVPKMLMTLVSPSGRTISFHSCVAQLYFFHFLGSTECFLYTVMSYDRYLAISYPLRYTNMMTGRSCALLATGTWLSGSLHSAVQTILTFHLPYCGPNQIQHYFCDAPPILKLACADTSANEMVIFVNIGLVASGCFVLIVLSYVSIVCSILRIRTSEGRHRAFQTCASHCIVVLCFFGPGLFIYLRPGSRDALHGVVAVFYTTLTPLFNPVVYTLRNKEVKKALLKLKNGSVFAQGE
Experimental: as §1

C=CCc1ccc(O)c(OC)c1 [eugenol]
puromycin resistance in presence of odorant versus solvent control (OR5AN1): do not increase resistance over solvent control; also recorded: the resistance was equal to the solvent control | puromycin resistance in presence of odorant versus solvent control (OR10G9): no increased resistance | puromycin resistance in presence of odorant versus solvent control (OR10G7): increased resistance to puromycin; also recorded: strongly enhanced puromycin resistance

CC(=O)c1c(C)c([N+](=O)[O-])c(C(C)(C)C)c([N+](=O)[O-])c1C [musk ketone]
puromycin resistance in presence of odorant versus solvent control (OR5AN1): increased resistance to puromycin; also recorded: enhanced puromycin resistance | puromycin resistance in presence of odorant versus solvent control (OR10G9): no increased resistance | puromycin resistance in presence of odorant versus solvent control (OR10G7): does not increase resistance over solvent control; also recorded: no induced puromycin resistance over solvent control
